Bridge positions count the residues as written; N and C are the ends. Square brackets hold non-standard residues; d marks the D form. Peptide text beside a SMILES is read from it. NMeR = CN[C@@H](CCCNC(=N)N)C(=O)O; AllylGly = C=CC[C@H](N)C(=O)O; Pen = CC(C)(S)[C@H](N)C(=O)O; Tle = CC(C)(C)[C@H](N)C(=O)O
Assays:
[1] = biological target: Neurotensin receptor type 1 (Homo sapiens, UniProt P30989); test: Displacement of [125I]Tyr3-neurotensin from human recombinant NTS1 stably expressed in CHO-K1 cell membranes incubated for 60 mins by gamma counter analysis; design: species or system Cell membrane
[2] = biological target: Neurotensin receptor type 2 (Homo sapiens, UniProt O95665); test: Displacement of [125I]Tyr3-neurotensin from human recombinant NTS2 stably expressed in human 1321N1 cell membranes incubated for 60 mins by gamma counter analysis; design: species or system Cell membrane
[3] = biological target: Neurotensin receptor type 1 (Mus musculus, UniProt O88319); test: Displacement of [3H]-neurotensin from NTS1 in mouse brain membrane incubated for 30 mins by liquid scintillation counter analysis; format: cell membranes
Neurotensin receptor type 1 (Mus musculus, UniProt O88319), sequence (O88319 whole entry): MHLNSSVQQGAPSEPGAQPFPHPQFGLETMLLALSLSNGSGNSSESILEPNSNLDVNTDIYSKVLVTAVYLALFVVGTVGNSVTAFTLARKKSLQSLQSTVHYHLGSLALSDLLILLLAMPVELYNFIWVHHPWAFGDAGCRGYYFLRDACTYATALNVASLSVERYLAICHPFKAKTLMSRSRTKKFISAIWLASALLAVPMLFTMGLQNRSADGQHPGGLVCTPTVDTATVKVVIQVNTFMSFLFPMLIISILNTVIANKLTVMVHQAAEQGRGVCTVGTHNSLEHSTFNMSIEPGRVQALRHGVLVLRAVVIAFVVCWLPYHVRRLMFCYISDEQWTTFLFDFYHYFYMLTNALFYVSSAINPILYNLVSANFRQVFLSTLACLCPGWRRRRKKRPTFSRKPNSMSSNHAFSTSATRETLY

Neurotensin receptor type 1 (Homo sapiens, UniProt P30989), sequence (P30989 whole entry): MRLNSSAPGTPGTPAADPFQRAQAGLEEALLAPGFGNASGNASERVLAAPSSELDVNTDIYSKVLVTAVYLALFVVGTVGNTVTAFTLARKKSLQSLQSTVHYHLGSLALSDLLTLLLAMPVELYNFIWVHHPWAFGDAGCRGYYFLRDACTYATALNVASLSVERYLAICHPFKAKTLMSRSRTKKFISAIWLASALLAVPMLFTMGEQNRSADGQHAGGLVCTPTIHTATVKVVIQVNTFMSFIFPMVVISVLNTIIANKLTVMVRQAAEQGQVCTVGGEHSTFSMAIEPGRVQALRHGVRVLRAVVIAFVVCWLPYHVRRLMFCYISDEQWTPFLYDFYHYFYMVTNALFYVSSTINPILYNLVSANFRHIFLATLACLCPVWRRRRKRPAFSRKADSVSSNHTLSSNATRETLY
Neurotensin receptor type 2, sequence (O95665 whole entry): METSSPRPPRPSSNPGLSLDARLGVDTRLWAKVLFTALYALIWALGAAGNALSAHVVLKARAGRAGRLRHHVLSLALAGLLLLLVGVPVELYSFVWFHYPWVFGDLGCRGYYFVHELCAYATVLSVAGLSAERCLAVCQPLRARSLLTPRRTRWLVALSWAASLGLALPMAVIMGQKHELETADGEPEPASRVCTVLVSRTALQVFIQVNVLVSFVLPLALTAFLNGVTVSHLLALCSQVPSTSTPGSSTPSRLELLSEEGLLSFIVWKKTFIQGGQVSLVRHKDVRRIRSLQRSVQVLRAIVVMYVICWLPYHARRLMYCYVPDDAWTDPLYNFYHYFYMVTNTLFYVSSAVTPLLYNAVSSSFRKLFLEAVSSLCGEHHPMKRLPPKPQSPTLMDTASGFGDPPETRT

Row | Compound | Ki [1] | Ki [2] | Ki [3]
1 | CC(C)C[C@H](NC(=O)[C@H](Cc1ccc(O)cc1)NC(=O)[C@H]1C/C=C\C[C@@H](N)C(=O)N[C@@H](CCCCN)C(=O)N[C@@H](CCCCN)C(=O)N1)C(=O)O | > 100000 nM | 2200 nM | –
2 | CC(C)C[C@H](NC(=O)[C@H](Cc1ccc(O)cc1)NC(=O)[C@@H]1CCCC[C@H](N)C(=O)N[C@@H](CCCCN)C(=O)N[C@@H](CCCCN)C(=O)N1)C(=O)O | > 100000 nM | 90 nM | –
3 | CC[C@H](C)[C@H](NC(=O)[C@H](Cc1ccc(O)cc1)NC(=O)[C@@H]1CCCN1C(=O)[C@H](CCCNC(=N)N)NC(=O)[C@H](CCCNC(=N)N)NC(=O)[C@@H]1CCCN1C(=O)[C@H](CCCCN)NC(=O)[C@H](C)NC(=O)[C@H](CCC(=O)O)NC(=O)[C@H](Cc1ccc(O)cc1)NC(=O)[C@H](CC(C)C)NC(=O)[C@@H]1CCC(=O)N1)C(=O)N[C@@H](CC(C)C)C(=O)O | 2.4 nM | 8.8 nM | –
4 | CC[C@H](C)[C@H](NC(=O)[C@H](C)NC(=O)[C@@H]1CCCN1C(=O)[C@H](CCCN=C(N)N)NC(=O)[C@H](CCCN=C(N)N)NC(=O)[C@@H]1CCCN1C(=O)[C@H](CCCCN)NC(=O)[C@H](CC(N)=O)NC(=O)[C@H](CCC(=O)O)NC(=O)[C@H](Cc1ccc(O)cc1)NC(=O)[C@H](CC(C)C)NC(=O)[C@@H]1CCC(=O)N1)C(=O)N[C@@H](CC(C)C)C(=O)O | > 10000 nM | 590 nM | –
5 | CC(C)C[C@H](NC(=O)[C@H](Cc1ccc(O)cc1)NC(=O)[C@H]1CCCN1C(=O)[C@@H]1C/C=C\C[C@H](N)C(=O)N[C@@H](CCCCN)C(=O)N[C@@H](CCCCN)C(=O)N1)C(=O)O | > 100000 nM | 200 nM | –
6 | CC[C@H](C)[C@H](NC(=O)[C@H](Cc1ccc(O)cc1)NC(=O)[C@@H]1CCCN1C(=O)[C@H](C)NC(=O)[C@H](CCCN=C(N)N)NC(=O)[C@@H]1CCCN1C(=O)[C@H](CCCCN)NC(=O)[C@H](CC(N)=O)NC(=O)[C@H](CCC(=O)O)NC(=O)[C@H](Cc1ccc(O)cc1)NC(=O)[C@H](CC(C)C)NC(=O)[C@@H]1CCC(=O)N1)C(=O)N[C@@H](CC(C)C)C(=O)O | – | 10 nM | –
7 | CC(C)C[C@H](NC(=O)[C@H](Cc1ccc(O)cc1)NC(=O)[C@@H]1C/C=C\C[C@@H](N)C(=O)N[C@@H](CCCCN)C(=O)N[C@@H](CCCCN)C(=O)N1)C(=O)O | > 100000 nM | 100 nM | –
8 | CC[C@H](C)[C@H](NC(=O)[C@H](Cc1ccc(O)cc1)NC(=O)[C@@H]1CCCN1C(=O)[C@@H](C)NC(=O)[C@H](CCCN=C(N)N)NC(=O)[C@@H]1CCCN1C(=O)[C@H](CCCCN)NC(=O)[C@H](CC(N)=O)NC(=O)[C@H](CCC(=O)O)NC(=O)[C@H](Cc1ccc(O)cc1)NC(=O)[C@H](CC(C)C)NC(=O)[C@@H]1CCC(=O)N1)C(=O)N[C@@H](CC(C)C)C(=O)O | 174 nM | – | –
9 | CC(C)C[C@H](NC(=O)[C@H](Cc1ccc(O)cc1)NC(=O)[C@H]1C/C=C\C[C@H](N)C(=O)N[C@@H](CCCCN)C(=O)N[C@@H](CCCCN)C(=O)N2CCC[C@H]2C(=O)N1)C(=O)O | > 100000 nM | 2500 nM | –
10 | CC[C@H](C)[C@H](NC(=O)[C@H](Cc1ccc(O)cc1)NC(=O)[C@H](CCCCN)NC(=O)[C@@H]1C/C=C\C[C@H](N)C(=O)N[C@@H](CCCCN)C(=O)N1)C(=O)N[C@@H](CC(C)C)C(=O)O (H-[AllylGly]K[AllylGly]KYIL-OH; staple (Z) 1-3) | > 100000 nM | > 10000 nM | –
11 | CC[C@H](C)[C@H](NC(=O)[C@H](Cc1ccc(O)cc1)NC(=O)[C@@H]1CCCN1C(=O)[C@H](CCCNC(=N)N)NC(=O)[C@@H](N)CCCNC(=N)N)C(=O)O | > 100000 nM | 620 nM | –
12 | CC[C@H](C)[C@H](NC(=O)[C@H](Cc1ccc(O)cc1)NC(=O)[C@@H]1CCCN1C(=O)[C@H](CCCNC(=N)N)NC(=O)[C@H](CCCNC(=N)N)NC(=O)[C@@H]1CCCN1C(=O)[C@H](CCCCN)NC(=O)[C@H](CC(N)=O)NC(=O)[C@H](CCC(=O)O)NC(=O)[C@H](C)NC(=O)[C@H](CC(C)C)NC(=O)[C@@H]1CCC(=O)N1)C(=O)N[C@@H](CC(C)C)C(=O)O | 2.8 nM | 8.7 nM | –
13 | CC[C@H](C)[C@H](NC(=O)[C@H](Cc1ccc(O)cc1)NC(=O)[C@@H]1CCCN1C(=O)[C@H](CCCNC(=N)N)NC(=O)[C@H](C)NC(=O)[C@@H]1CCCN1C(=O)[C@H](CCCCN)NC(=O)[C@H](CC(N)=O)NC(=O)[C@H](CCC(=O)O)NC(=O)[C@H](Cc1ccc(O)cc1)NC(=O)[C@H](CC(C)C)NC(=O)[C@@H]1CCC(=O)N1)C(=O)N[C@@H](CC(C)C)C(=O)O | 75 nM | 95 nM | –
14 | CC[C@@H](C)[C@H](NC(=O)[C@@H]1C/C=C\C[C@H](N)C(=O)N[C@@H](CCCCN)C(=O)N[C@@H](CCCCN)C(=O)N[C@@H](Cc2ccc(O)cc2)C(=O)N1)C(=O)N[C@@H](CC(C)C)C(=O)O | > 10000 nM | 1300 nM | –
15 | CC(C)C[C@H](NC(=O)[C@H](Cc1ccc(O)cc1)NC(=O)[C@H]1C/C=C\C[C@H](N)C(=O)N[C@@H](CCCCN)C(=O)N[C@@H](CCCCN)C(=O)N1)C(=O)O | > 100000 nM | 1100 nM | –

The next lines start with the values.

Row | Ki [1] | Ki [2] | Ki [3] | Compound
16 | 2.4 nM | 6.8 nM | – | CC[C@H](C)[C@H](NC(=O)[C@H](Cc1ccc(O)cc1)NC(=O)[C@@H]1CCCN1C(=O)[C@H](CCCNC(=N)N)NC(=O)[C@H](CCCNC(=N)N)NC(=O)[C@@H]1CCCN1C(=O)[C@H](CCCCN)NC(=O)[C@H](CC(N)=O)NC(=O)[C@H](CCC(=O)O)NC(=O)[C@H](Cc1ccc(O)cc1)NC(=O)[C@H](C)NC(=O)[C@@H]1CCC(=O)N1)C(=O)N[C@@H](CC(C)C)C(=O)O
17 | – | – | 410 nM | CC(C)C[C@@H]1NC(=O)[C@H](C(C)(C)C)NC(=O)[C@H](Cc2c[nH]c3ccccc23)NC(=O)[C@@H]2CCCN2C(=O)[C@H](CCCCN)NC(=O)[C@H](CCCNC(=N)N)NC1=O (cyclo(KPW[Tle]LR))
18 | – | – | 83 nM | CN[C@@H](CCCNC(=N)N)C(=O)N[C@H]1CSSC(C)(C)[C@@H](C(=O)N[C@@H](CC(C)C)C(=O)O)NC(=O)[C@H](Cc2c[nH]c3ccccc23)NC(=O)[C@@H]2CCCN2C1=O (H-[NMeR]CPW[Pen]L-OH; disulfide 2-5)
19 | > 10000 nM | 655 nM | – | CC[C@H](C)[C@H](NC(=O)[C@H](Cc1ccc(O)cc1)NC(=O)[C@@H]1CCCN1C(=O)[C@H](CCCNC(=N)N)NC(=O)[C@H](CCCNC(=N)N)NC(=O)[C@@H]1CCCN1C(=O)[C@H](CCCCN)NC(=O)[C@H](CC(N)=O)NC(=O)[C@H](CCC(=O)O)NC(=O)[C@H](Cc1ccc(O)cc1)NC(=O)[C@H](CC(C)C)NC(=O)[C@@H]1CCC(=O)N1)C(=O)N[C@@H](C)C(=O)O
20 | 6 nM | 9.3 nM | – | CC[C@H](C)[C@H](NC(=O)[C@H](Cc1ccc(O)cc1)NC(=O)[C@@H]1CCCN1C(=O)[C@H](CCCNC(=N)N)NC(=O)[C@H](CCCNC(=N)N)NC(=O)[C@@H]1CCCN1C(=O)[C@H](C)NC(=O)[C@H](CC(N)=O)NC(=O)[C@H](CCC(=O)O)NC(=O)[C@H](Cc1ccc(O)cc1)NC(=O)[C@H](CC(C)C)NC(=O)[C@@H]1CCC(=O)N1)C(=O)N[C@@H](CC(C)C)C(=O)O
21 | 2 nM | 8.7 nM | – | CC[C@H](C)[C@H](NC(=O)[C@H](Cc1ccc(O)cc1)NC(=O)[C@@H]1CCCN1C(=O)[C@H](CCCNC(=N)N)NC(=O)[C@H](CCCNC(=N)N)NC(=O)[C@@H]1CCCN1C(=O)[C@H](CCCCN)NC(=O)[C@H](CC(N)=O)NC(=O)[C@H](CCC(=O)O)NC(=O)[C@H](Cc1ccc(O)cc1)NC(=O)[C@H](CC(C)C)NC(=O)[C@H](C)N)C(=O)N[C@@H](CC(C)C)C(=O)O
22 | > 100000 nM | 1500 nM | – | CC(C)C[C@H](NC(=O)[C@H](Cc1ccc(O)cc1)NC(=O)[C@@H]1CSSC[C@H](N)C(=O)N[C@@H](CCCCN)C(=O)N[C@@H](CCCCN)C(=O)N1)C(=O)O (H-CKKCYL-OH; disulfide 1-4)
23 | 2.9 nM | 4.6 nM | – | CC[C@H](C)[C@H](NC(=O)[C@H](Cc1ccc(O)cc1)NC(=O)[C@@H]1CCCN1C(=O)[C@H](CCCNC(=N)N)NC(=O)[C@H](CCCNC(=N)N)NC(=O)[C@H](C)NC(=O)[C@H](CCCCN)NC(=O)[C@H](CC(N)=O)NC(=O)[C@H](CCC(=O)O)NC(=O)[C@H](Cc1ccc(O)cc1)NC(=O)[C@H](CC(C)C)NC(=O)[C@@H]1CCC(=O)N1)C(=O)N[C@@H](CC(C)C)C(=O)O
24 | > 100000 nM | > 10000 nM | – | CC[C@@H](C)[C@H](NC(=O)[C@H](Cc1ccc(O)cc1)NC(=O)[C@@H]1C/C=C\C[C@H](NC(=O)[C@@H](N)CCCCN)C(=O)N[C@@H](CCCCN)C(=O)N1)C(=O)N[C@@H](CC(C)C)C(=O)O
25 | 1.8 nM | 2.7 nM | – | CC[C@H](C)[C@H](NC(=O)[C@H](Cc1ccc(O)cc1)NC(=O)[C@@H]1CCCN1C(=O)[C@H](CCCNC(=N)N)NC(=O)[C@H](CCCNC(=N)N)NC(=O)[C@@H]1CCCN1C(=O)[C@H](CCCCN)NC(=O)[C@H](CC(N)=O)NC(=O)[C@H](C)NC(=O)[C@H](Cc1ccc(O)cc1)NC(=O)[C@H](CC(C)C)NC(=O)[C@@H]1CCC(=O)N1)C(=O)N[C@@H](CC(C)C)C(=O)O
26 | > 100000 nM | > 10000 nM | – | CC[C@@H](C)[C@H](NC(=O)[C@H](CC(C)C)NC(=O)[C@H](Cc1ccc(O)cc1)NC(=O)[C@@H]1C/C=C\C[C@H](N)C(=O)N[C@@H](CCCCN)C(=O)N[C@@H](CCCCN)C(=O)N1)C(=O)O
27 | > 100000 nM | > 10000 nM | – | CC[C@@H](C)[C@H](NC(=O)[C@H](Cc1ccc(O)cc1)NC(=O)[C@@H]1C/C=C\C[C@H](N)C(=O)N[C@@H](CCCCN)C(=O)N[C@@H](CCCCN)C(=O)N1)C(=O)O
28 | > 100000 nM | 391 nM | – | H-RRPYL-OH
29 | > 10000 nM | > 10000 nM | – | CC[C@@H](C)[C@H](NC(=O)[C@H](Cc1ccc(O)cc1)NC(=O)[C@@H]1C/C=C\C[C@H](N)C(=O)N[C@@H](CCCCN)C(=O)N[C@@H](CCCCN)C(=O)N1)C(=O)N[C@@H](CC(C)C)C(=O)O
30 | 161 nM | 16 nM | – | CC[C@H](C)[C@H](NC(=O)[C@H](Cc1ccc(O)cc1)NC(=O)[C@H](C)NC(=O)[C@H](CCCNC(=N)N)NC(=O)[C@H](CCCNC(=N)N)NC(=O)[C@@H]1CCCN1C(=O)[C@H](CCCCN)NC(=O)[C@H](CC(N)=O)NC(=O)[C@H](CCC(=O)O)NC(=O)[C@H](Cc1ccc(O)cc1)NC(=O)[C@H](CC(C)C)NC(=O)[C@@H]1CCC(=O)N1)C(=O)N[C@@H](CC(C)C)C(=O)O

— ChEMBL document CHEMBL4732177 (J Med Chem, 2021)
